system: KMS11 (human myeloma cell line); experiment: Cell Proliferation Assay (CellTiter-Glo, 3 days); assay type: cell-based; settings: KMS-11, 72 h, KMS11-luc cells
Method: KMS11 (human myeloma cell line), were cultured in IMDM supplemented with 10% FBS, sodium pyruvate and antibiotics. Cells were plated in the same medium at a density of 2000 cells per well into 96 well tissue culture plates, with outside wells vacant, on the day of assay.
Test compounds supplied in DMSO were diluted into DMSO at 500 times the desired final concentrations before dilution into culture media to 2 times final concentrations. Equal volumes of 2× compounds were added to the cells in 96 well plates and incubated at 37° C. for 3 days.
After 3 days plates were equilibrated to room temperature and equal volume of CellTiter-Glow Reagent (Promega) was added to the culture wells. The plates were agitated briefly and luminescent signal was measured with luminometer.
Using the procedures of Cell Proliferation Assay, the EC50 concentrations of compounds of the examples were determined in KMS11 cells as shown in Table 4.

| SMILES | EC50 [nM] |
| --- | --- |
| Cc1cc(F)c(-c2nc(C(=O)Nc3cnccc3[C@H]3C[C@@H](N)[C@@H](O)[C@@H](C)C3)ccc2F)c(F)c1 [Example 6, N-(4-((1R,3R,4S,5S)-3-amino-4-hydroxy-5-methylcyclohexyl)pyridin-3-yl)-6-(2,6-difluoro-4-methylphenyl)-5-fluoropicolinamide] | 41 |
| C[C@H]1C[C@@H](c2ccncc2NC(=O)c2ccc(F)c(-c3c(F)cc(C4(F)CCOCC4)cc3F)n2)C[C@@H](N)[C@H]1O [Example 129, N-(4-((1R,3R,4S,5S)-3-amino-4-hydroxy-5-methylcyclohexyl)pyridin-3-yl)-6-(2,6-difluoro-4-(4-fluorotetrahydro-2H-pyran-4-yl)phenyl)-5-fluoropicolinamide] | 78 |
| C[C@H]1C[C@@H](c2ccncc2NC(=O)c2ccc(F)c(-c3c(F)cc(C4CC4)cc3F)n2)C[C@@H](N)[C@@H]1O [Example 72, N-(4-((1R,3R,4R,5S)-3-amino-4-hydroxy-5-methylcyclohexyl)pyridin-3-yl)-6-(4-cyclopropyl-2,6-difluorophenyl)-5-fluoropicolinamide] | 139 |
| C[C@@H]1C[C@H](N)C[C@H](c2ccncc2NC(=O)c2ccc(F)c(-c3c(F)cc([C@@H](C)O)cc3F)n2)C1 [Example 74, N-(4-((1R,3S,5S)-3-amino-5-methylcyclohexyl)pyridin-3-yl)-6-(2,6-difluoro-4-((R)-1-hydroxyethyl)phenyl)-5-fluoropicolinamide] | 15 |
| N[C@H]1CCC[C@@H](c2ccncc2NC(=O)c2ccc(F)c(-c3c(F)cc(C4(F)CCOCC4)cc3F)n2)C1 [Example 153, N-(4-((1R,3S)-3-aminocyclohexyl)pyridin-3-yl)-6-(2,6-difluoro-4-(4-fluorotetrahydro-2H-pyran-4-yl)phenyl)-5-fluoropicolinamide] | 366 |
| CSc1cc(F)c(-c2nc(C(=O)Nc3cnccc3[C@H]3C[C@@H](N)[C@H](O)[C@@H](C)C3)ccc2F)c(F)c1 [Example 36, N-(4-((1R,3R,4R,5S)-3-amino-4-hydroxy-5-methylcyclohexyl)pyridin-3-yl)-6-(2,6-difluoro-4-(methylthio)phenyl)-5-fluoropicolinamide] | 107 |
| N[C@H]1CCC[C@@H](c2ccncc2NC(=O)c2ccc(F)c(-c3c(F)cc(C4CCOCC4)cc3F)n2)C1 [Example 156, N-(4-((1R,3S)-3-aminocyclohexyl)pyridin-3-yl)-6-(2,6-difluoro-4-(tetrahydro-2H-pyran-4-yl)phenyl)-5-fluoropicolinamide] | 436 |
| C[C@H]1C[C@@H](c2ccncc2NC(=O)c2ccc(F)c(-c3c(F)cc(C4(O)CCC4)cc3F)n2)C[C@@H](N)[C@@H]1O [Example 60, N-(4-((1R,3R,4R,5S)-3-amino-4-hydroxy-5-methylcyclohexyl)pyridin-3-yl)-6-(2,6-difluoro-4-(1-hydroxycyclobutyl)phenyl)-5-fluoropicolinamide] | 15 |
| C[C@H]1C[C@@H](c2ccncc2NC(=O)c2ccc(F)c(-c3c(F)cc(C4(O)COC4)cc3F)n2)C[C@@H](N)[C@@H]1O [Example 54, N-(4-((1R,3R,4R,5S)-3-amino-4-hydroxy-5-methylcyclohexyl)pyridin-3-yl)-6-(2,6-difluoro-4-(3-hydroxyoxetan-3-yl)phenyl)-5-fluoropicolinamide] | 95 |
| C[C@H]1C[C@@H](c2ccncc2NC(=O)c2ccc(F)c(-c3c(F)cc(CCO)cc3F)n2)C[C@@H](N)[C@@H]1O [Example 34, N-(4-((1R,3R,4R,5S)-3-amino-4-hydroxy-5-methylcyclohexyl)pyridin-3-yl)-6-(2,6-difluoro-4-(2-hydroxyethyl)phenyl)-5-fluoropicolinamide] | 29 |
| C[C@H]1C[C@@H](c2ccncc2NC(=O)c2ccc(F)c(-c3c(F)cc(S(C)(=O)=O)cc3F)n2)C[C@@H](N)[C@@H]1O [Example 14, N-(4-((1R,3R,4R,5S)-3-amino-4-hydroxy-5-methylcyclohexyl)pyridin-3-yl)-6-(2,6-difluoro-4-(methylsulfonyl)phenyl)-5-fluoropicolinamide] | 1440 |
| C[C@H]1C[C@@H](c2ccncc2NC(=O)c2ccc(F)c(-c3c(F)cc([S@+](C)[O-])cc3F)n2)C[C@@H](N)[C@@H]1O [Example 27, N-(4-((1R,3R,4R,5S)-3-amino-4-hydroxy-5-methylcyclohexyl)pyridin-3-yl)-6-(2,6-difluoro-4-((S)-methylsulfinyl)phenyl)-5-fluoropicolinamide] | 90 |
| CCOCc1cc(F)c(-c2nc(C(=O)Nc3cnccc3[C@@H]3CCC[C@H](N)C3)ccc2F)c(F)c1 [Example 152, N-(4-((1R,3S)-3-aminocyclohexyl)pyridin-3-yl)-6-(4-(ethoxymethyl)-2,6-difluorophenyl)-5-fluoropicolinamide] | 211 |
| CCC(=O)c1cc(F)c(-c2nc(C(=O)Nc3cnccc3[C@H]3C[C@@H](N)[C@H](O)[C@@H](C)C3)ccc2F)c(F)c1 [Example 157, N-(4-((1R,3R,4R,5S)-3-amino-4-hydroxy-5-methylcyclohexyl)pyridin-3-yl)-6-(2,6-difluoro-4-propionylphenyl)-5-fluoropicolinamide] | 68 |
| Cc1cc(F)c(-c2nc(C(=O)Nc3cnccc3[C@H]3C[C@@H](N)[C@H](O)[C@@H](C)C3)ccc2F)c(F)c1 [Example 4, N-(4-((1R,3R,4R,5S)-3-amino-4-hydroxy-5-methylcyclohexyl)pyridin-3-yl)-6-(2,6-difluoro-4-methylphenyl)-5-fluoropicolinamide] | 70 |

Now from value to molecule:

| EC50 [nM] | SMILES |
| --- | --- |
| 77 | C[C@H]1C[C@@H](c2ccncc2NC(=O)c2ccc(F)c(-c3c(F)cc(C4(C#N)CCOCC4)cc3F)n2)C[C@@H](N)[C@@H]1O [Example 171, N-(4-((1R,3R,4R,5S)-3-amino-4-hydroxy-5-methylcyclohexyl)pyridin-3-yl)-6-(4-(4-cyanotetrahydro-2H-pyran-4-yl)-2,6-difluorophenyl)-5-fluoropicolinamide] |
| 62 | C[C@H]1CN(c2ccncc2NC(=O)c2ccc(F)c(-c3c(F)cc(Cl)cc3F)n2)C[C@@H](N)[C@@H]1O [Example 217, N-(4-((3R,4R,5S)-3-amino-4-hydroxy-5-methylpiperidin-1-yl)pyridin-3-yl)-6-(4-chloro-2,6-difluorophenyl)-5-fluoropicolinamide] |
| 62 | CCc1cc(F)c(-c2nc(C(=O)Nc3cnccc3[C@@H]3C[C@H](C)C[C@H](N)C3)ccc2F)c(F)c1 [Example 230, N-(4-((1R,3S,5S)-3-amino-5-methylcyclohexyl)pyridin-3-yl)-6-(4-ethyl-2,6-difluorophenyl)-5-fluoropicolinamide] |
| 122 | N[C@H]1CCC[C@@H](c2ccncc2NC(=O)c2ccc(F)c(-c3c(F)cc(C4(O)CCCC4)cc3F)n2)C1 [Example 162, N-(4-((1R,3S)-3-aminocyclohexyl)pyridin-3-yl)-6-(2,6-difluoro-4-(1-hydroxycyclopentyl)phenyl)-5-fluoropicolinamide] |
| 325 | N[C@H]1CCC[C@@H](c2ccncc2NC(=O)c2ccc(F)c(-c3c(F)cc(N4CCOCC4)cc3F)n2)C1 [Example 166, N-(4-((1R,3S)-3-aminocyclohexyl)pyridin-3-yl)-6-(2,6-difluoro-4-morpholinophenyl)-5-fluoropicolinamide] |
| 363 | C[C@@H]1C[C@H](N)C[C@H](c2ccncc2NC(=O)c2ccc(F)c(-c3c(F)cc(Cl)cc3F)n2)C1 [Example 208, N-(4-((1R,3S,5S)-3-amino-5-methylcyclohexyl)pyridin-3-yl)-6-(4-chloro-2,6-difluorophenyl)-5-fluoropicolinamide] |
| > 10000 | C[C@H]1C[C@@H](c2ccncc2NC(=O)c2ccc(F)c(-c3c(F)cc(C(C)(C)C(=O)O)cc3F)n2)C[C@@H](N)[C@@H]1O [Example 182, 2-(4-(6-(4-((1R,3R,4R,5S)-3-amino-4-hydroxy-5-methylcyclohexyl)pyridin-3-ylcarbamoyl)-3-fluoropyridin-2-yl)-3,5-difluorophenyl)-2-methylpropanoic acid] |
| 409 | CC(C)(C#N)c1cc(F)c(-c2nc(C(=O)Nc3cnccc3[C@@H]3CCC[C@H](N)C3)ccc2F)c(F)c1 [Example 167, N-(4-((1R,3S)-3-aminocyclohexyl)pyridin-3-yl)-6-(4-(2-cyanopropan-2-yl)-2,6-difluorophenyl)-5-fluoropicolinamide] |
| 34 | C[C@H]1C[C@@H](c2ccncc2NC(=O)c2ccc(F)c(-c3c(F)cc(C4(O)CCCC4)cc3F)n2)C[C@@H](N)[C@@H]1O [Example 161, N-(4-((1R,3R,4R,5S)-3-amino-4-hydroxy-5-methylcyclohexyl)pyridin-3-yl)-6-(2,6-difluoro-4-(1-hydroxycyclopentyl)phenyl)-5-fluoropicolinamide] |
| 97 | N[C@H]1CCC[C@@H](c2ccncc2NC(=O)c2ccc(F)c(-c3c(F)cc(C4(O)CCC4)cc3F)n2)C1 [Example 159, N-(4-((1R,3S)-3-aminocyclohexyl)pyridin-3-yl)-6-(2,6-difluoro-4-(1-hydroxycyclobutyl)phenyl)-5-fluoropicolinamide] |
| 204 | CC(C)c1cc(F)c(-c2nc(C(=O)Nc3cnccc3[C@H]3C[C@@H](N)[C@H](O)[C@@H](C)C3)ccc2F)c(F)c1 [Example 199, N-(4-((1R,3R,4R,5S)-3-amino-4-hydroxy-5-methylcyclohexyl)pyridin-3-yl)-6-(2,6-difluoro-4-isopropylphenyl)-5-fluoropicolinamide] |
| 262 | C[C@@H]1C[C@H](N)C[C@H](c2ccncc2NC(=O)c2ccc(F)c(-c3c(F)cc(F)cc3F)n2)C1 [Example 209, N-(4-((1R,3S,5S)-3-amino-5-methylcyclohexyl)pyridin-3-yl)-5-fluoro-6-(2,4,6-trifluorophenyl)picolinamide] |
